We go through 41 molecules from patent US8354403B2, “Pyrrolidine derived beta 3 adrenergic receptor agonists” (Merck Sharp & Dohme Corp., priority 2009, dated 2013).

The assay concerns the target T1, human β3 adrenergic receptor (Homo sapiens, UniProt P13945).
T1 construct: expressed in transfected cells; host or cells: Chinese hamster ovary (CHO) cells, stably transfected
Description: Beta-3 agonist in vitro functional assay: cAMP production (LANCE TR-FRET) in CHO cells stably transfected with the cloned β3 receptor. Format: cell-based. Summed up:
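CHO cells stably expressing the cloned receptor, in HEPES-buffered HBSS with BSA and 0.6 mM IBMX, 6,000 cells/well, exposed to compound for 30 min at RT. cAMP read by LANCE TR-FRET against a cAMP standard curve. Isoproterenol defines maximal stimulation.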

Where [1] appears, read: Table 9, Beta-3 agonist in vitro functional assay, read-out: Human β3 agonist functional activity.
Setting [2] is: given as a range, cAMP, CHO cells, read-out: human β3 functional activity.
Setting [3] is: Table 8, Beta-3 agonist in vitro functional assay, read-out: Human β3 agonist functional activity.
Setting [4] is: Table 5, cAMP, CHO cells, read-out: Human β3 agonist functional activity.
Where [5] appears, read: Table 10, Beta-3 agonist in vitro functional assay, read-out: Human β3 agonist functional activity.
Where [6] appears, read: Table 4, cAMP, CHO cells, read-out: Human β3 agonist functional activity.
[7] abbreviates: Table 12, human β3 functional activity given as ranges, read-out: Human β3 agonist functional activity.

Structures are written as SMILES. Like-named read-outs stand apart in the source and are kept apart here.

T1 sequence (P13945 whole entry): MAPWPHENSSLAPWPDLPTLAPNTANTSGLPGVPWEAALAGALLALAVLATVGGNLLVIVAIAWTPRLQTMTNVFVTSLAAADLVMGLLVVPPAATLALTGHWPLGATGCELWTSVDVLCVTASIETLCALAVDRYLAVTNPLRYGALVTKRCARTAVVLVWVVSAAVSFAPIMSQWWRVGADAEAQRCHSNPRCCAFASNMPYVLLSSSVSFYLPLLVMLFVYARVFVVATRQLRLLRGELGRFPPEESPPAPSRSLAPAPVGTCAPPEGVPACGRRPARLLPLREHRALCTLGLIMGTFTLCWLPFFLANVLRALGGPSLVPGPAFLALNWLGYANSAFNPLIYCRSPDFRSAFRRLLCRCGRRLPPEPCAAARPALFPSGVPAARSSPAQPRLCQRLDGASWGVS

For `O=C(c1ccc(C[C@@H]2CC[C@H]([C@H](O)c3ccccc3)N2)cc1)N1CCN(c2ncccc2Cl)CC1` [Example 358], under setting [1], the EC50 lay in the range of 10 to 99.9 nM.

For the molecule `O=C(c1ccc(C[C@@H]2CC[C@H]([C@H](O)c3ccccc3)N2)cc1)N1C2CCC1C1CCC2N1Cc1ccccn1` [Example 524, (R)-phenyl[(2R,5S)-5-(4-{[10-(pyridin-2-ylmethyl)-9,10-diazatricyclo[4.2.1.1^2,5]dec-9-yl]carbonyl}benzyl)pyrrolidin-2-yl]methanol], the EC50 under setting [2] lay in the range of 10 to 99.9 nM.

As for `O=C(c1ccc(C[C@@H]2CC[C@H]([C@H](O)c3ccccc3)N2)cc1)N1CCC2(CCOC2=O)CC1` [Example 239, 8-[4-({(2S,5R)-5-[(R)-hydroxy(phenyl)methyl]pyrrolidin-2-yl}methyl)benzoyl]-2-oxa-8-azaspiro[4.5]decan-1-one], under setting [2], the EC50 fell in the range of 1 to 9.9 nM.

Take `O=C1CC2(CCN(C(=O)c3ccc(C[C@@H]4CC[C@H]([C@H](O)c5ccccc5)N4)cc3)CC2)Oc2ccccc21` [Example 323]: the EC50 under setting [3] fell in the range of 10 to 99.9 nM.

In the case of `O=C(c1ccc(C[C@@H]2CC[C@H]([C@H](O)c3ccccc3)N2)cc1)N1CCN(Cc2n[nH]c3ccccc23)CC1` [Example 405], the EC50 under setting [1] was in the range of 1 to 9.9 nM.

Regarding `O=C(c1ccc(C[C@@H]2CC[C@H]([C@H](O)c3ccccc3)N2)cc1)N1CCN(c2noc3ccccc23)CC1` [Example 385], the EC50 under setting [1] is 10 to 99.9 nM.

As to `O=C(c1ccc(C[C@@H]2CC[C@H]([C@H](O)c3ccccc3)N2)cc1)N1CCC2(CCCNC2=O)CC1` [Example 256], under setting [3], the EC50 lay in the range of 100 to 999 nM.

As to `COC(=O)C1CC2(CCN(C(=O)c3ccc(C[C@@H]4CC[C@H]([C@H](O)c5ccccc5)N4)cc3)CC2)c2ccccc21` (some centres unmarked) [Example 320], the EC50 under setting [3] lay within 10 to 99.9 nM.

Consider `O=C(c1ccc(C[C@@H]2CC[C@H]([C@H](O)c3ccccc3)N2)cc1)N1CCC(Cn2ccncc2=O)CC1` [Example 151], for which the EC50 under setting [4] fell in the range of 10 to 99.9 nM.

In the case of `CC(C(=O)NCc1nnc2n1CCC2)N1CCN(C(=O)c2ccc(C[C@@H]3CC[C@H]([C@H](O)c4ccccc4)N3)cc2)CC1` (some centres unmarked) [Example 466], under setting [5], the EC50 lay within 100 to 999 nM.

Regarding `O=C(c1ccc(C[C@@H]2CC[C@H]([C@H](O)c3ccccc3)N2)cc1)N1CCN(Cc2ncco2)CC1` [Example 392], under setting [1], the EC50 lay in the range of 10 to 99.9 nM.

Consider `Cc1noc(C2CCCCN2C(=O)c2ccc(C[C@@H]3CC[C@H]([C@H](O)c4ccccc4)N3)cc2)n1` (some centres unmarked) [Example 49], for which the EC50 under setting [6] was 999 to 3000 nM.

Consider `O=C(c1ccc(C[C@@H]2CC[C@H]([C@H](O)c3ccccc3)N2)cc1)N1CCC(S(=O)(=O)c2ccc(F)cc2F)CC1` [Example 139], for which the EC50 under setting [4] fell in the range of 10 to 99.9 nM.

For `O=C(OCc1ccccc1)N1CC2(C1)CN(C(=O)c1ccc(C[C@@H]3CC[C@H]([C@H](O)c4ccccc4)N3)cc1)C2` [Example 5], under setting [6], the EC50 lay within 100 to 999 nM.

For the molecule `O=C1NC(=O)C2(CCN(C(=O)c3ccc(C[C@@H]4CC[C@H]([C@H](O)c5ccccc5)N4)cc3)CC2)N1` [Example 267], the EC50 under setting [3] was in the range of 10 to 99.9 nM.

Turning to `O=C(c1ccc(C[C@@H]2CC[C@H]([C@H](O)c3cccnc3)N2)cc1)N1CCC2(CCOC2=O)CC1` [Example 292], the EC50 under setting [3] fell in the range of 10 to 99.9 nM.

On to `O=C(c1ccc(C[C@@H]2CC[C@H]([C@H](O)c3ccccc3)N2)cc1)N1CCCC(S(=O)(=O)c2ncc(Br)s2)C1` (some centres unmarked) [Example 38], for which the EC50 under setting [6] is 10 to 99.9 nM.

On to `Cc1nc2c(s1)CCN(C(=O)c1ccc(C[C@@H]3CC[C@H]([C@H](O)c4ccccc4)N3)cc1)C2` [Example 52], for which the EC50 under setting [6] fell in the range of 100 to 999 nM.

On to `O=C(c1ccc(C[C@@H]2CC[C@H]([C@H](O)c3ccccc3)N2)cc1)N1CCN(c2nccnc2Cl)CC1` [Example 371], for which the EC50 under setting [1] is 100 to 999 nM.

For the molecule `CC1C(=O)c2cc(S(C)(=O)=O)ccc2OC12CCN(C(=O)c1ccc(C[C@@H]3CC[C@H]([C@H](O)c4ccccc4)N3)cc1)CC2` (some centres unmarked) [Example 335], the EC50 under setting [3] lay in the range of 10 to 99.9 nM.

Regarding `Cn1cc(C2CCN(C(=O)c3ccc(C[C@@H]4CC[C@H]([C@H](O)c5ccccc5)N4)cc3)CC2)nn1` [Example 97], the EC50 under setting [4] lay in the range of 100 to 999 nM.

With `O=C(c1ccc(C[C@@H]2CC[C@H]([C@H](O)c3ccccc3)N2)cc1)N1CCN(c2ccc3c(c2)OCO3)CC1` [Example 353], the EC50 under setting [1] lay within 100 to 999 nM.

Turning to `O=C(c1ccc(C[C@@H]2CC[C@H]([C@H](O)c3ccccc3)N2)cc1)N1CCC2(CCc3ccccc3S2(=O)=O)CC1` [Example 336], the EC50 under setting [3] is 1 to 9.9 nM.

Turning to `O=C(c1ccc(CC2CCC(C(O)c3ccccc3)N2)cc1)N1CCC2(CC1)CC(C1CC1)OC2=O` (single isomer, unassigned) [Ex. 554], under setting [2], the EC50 lay within 1 to 9.9 nM.

As to `O=C(c1ccc(C[C@@H]2CC[C@H]([C@H](O)c3ccccc3)N2)cc1)N1CCC2(CCNC2=O)CC1` [Example 250], the EC50 under setting [3] is 10 to 99.9 nM.

In the case of `O=C(c1ccc(C[C@@H]2CC[C@H]([C@H](O)c3cccnc3)N2)cc1)N1CCC2(CC1)SCc1ccccc12` [Example 301], the EC50 under setting [3] was 100 to 999 nM.

As to `CC(c1ncccn1)N1CCN(C(=O)c2ccc(CC3CCC(C(O)c4ccccc4)N3)cc2)CC1` (single isomer, unassigned) [Example 596], the EC50 under setting [7] fell in the range of 10 to 99.9 nM.

As for `CC(c1nccs1)N1CCN(C(=O)c2ccc(CC3CCC(C(O)c4ccccc4)N3)cc2)CC1` (single isomer, unassigned) [Example 582], under setting [7], the EC50 is 10 to 99.9 nM.

On to `CC(C(=O)N(C)C(C)(C)C)N1CCN(C(=O)c2ccc(C[C@@H]3CC[C@H]([C@H](O)c4ccccc4)N3)cc2)CC1` (some centres unmarked) [Example 517], for which, under setting [5], the EC50 lay within 100 to 999 nM.

Turning to `CC(C(=O)N1Cc2cccnc2C1)N1CCN(C(=O)c2ccc(C[C@@H]3CC[C@H]([C@H](O)c4ccccc4)N3)cc2)CC1` (some centres unmarked) [Example 482], under setting [5], the EC50 lay in the range of 10 to 99.9 nM.

As to `Cn1nnnc1C1(C)CCN(C(=O)c2ccc(C[C@@H]3CC[C@H]([C@H](O)c4ccccc4)N3)cc2)CC1` [Example 244], the EC50 under setting [3] was in the range of 100 to 999 nM.

As to `COc1ccc2c(c1)C(=O)CC1(CCCN(C(=O)c3ccc(C[C@@H]4CC[C@H]([C@H](O)c5ccccc5)N4)cc3)C1)O2` (some centres unmarked) [Example 43], the EC50 under setting [6] lay within 10 to 99.9 nM.

As for `O=C(c1ccc(C[C@@H]2CC[C@H]([C@H](O)c3ccccc3)N2)cc1)N1CC2CC(n3ncnn3)CC2C1` (some centres unmarked) [Example 19], the EC50 under setting [6] lay in the range of 10 to 99.9 nM.

With `O=C(c1ccc(C[C@@H]2CC[C@H]([C@H](O)c3ccccc3)N2)cc1)N1CCN(Cc2nc3ccccc3o2)CC1` [Example 403], under setting [1], the EC50 lay in the range of 1 to 9.9 nM.

Regarding `CC1CCN(C(=O)C(C)N2CCN(C(=O)c3ccc(C[C@@H]4CC[C@H]([C@H](O)c5ccccc5)N4)cc3)CC2)CC1` (some centres unmarked) [Example 488], under setting [5], the EC50 is 100 to 999 nM.

In the case of `O=C1OC2(CCN(C(=O)c3ccc(C[C@@H]4CC[C@H]([C@H](O)c5ccccc5)N4)cc3)CC2)c2ncccc21` [Example 287], under setting [3], the EC50 was 10 to 99.9 nM.

For the molecule `Cc1nnc(C2(C3CCCCC3)CCN(C(=O)c3ccc(C[C@@H]4CC[C@H]([C@H](O)c5ccccc5)N4)cc3)CC2)o1` [Example 249], the EC50 under setting [3] fell in the range of 100 to 999 nM.

Take `O=C(c1ccc(C[C@@H]2CC[C@H]([C@H](O)c3ccccc3)N2)cc1)N1CC2CC(n3nccn3)CC2C1` (some centres unmarked) [Example 20]: the EC50 under setting [6] was 10 to 99.9 nM.

Turning to `O=C(c1ccc(C[C@@H]2CC[C@H]([C@H](O)c3ccccc3)N2)cc1)N1CCN(Cc2ncccc2F)CC1` [Example 418], under setting [1], the EC50 fell in the range of 10 to 99.9 nM.

Turning to `O=C(c1ccc(C[C@@H]2CC[C@H]([C@H](O)c3ccccc3)N2)cc1)N1CCC2(CCc3cnoc32)CC1` [Example 322], the EC50 under setting [3] was 10 to 99.9 nM.

Regarding `O=C(c1ccc(C[C@@H]2CC[C@H]([C@H](O)c3ccccc3)N2)cc1)N1CCCC(c2nc3ccccc3o2)C1` (some centres unmarked) [Example 33], under setting [6], the EC50 lay within 100 to 999 nM.
